Data from the supplement of paper PMC10307832.

Assays:
Experiment in all cases: relative viability (nuclei count vs DMSO), 5 days (fraction); higher = more cells survive
Adavosertib + Pemetrexed = compound: C=CCn1c(=O)c2cnc(Nc3ccc(N4CCN(C)CC4)cc3)nc2n1-c1cccc(C(C)(C)O)n1 [Adavosertib] + Nc1nc2[nH]cc(CCc3ccc(C(=O)N[C@@H](CCC(=O)O)C(=O)O)cc3)c2c(=O)[nH]1 [Pemetrexed] (partner 0.2 µM)
Summary of the method: (§1)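 Relative viability is defined as nuclei in treated wells over nuclei in vehicle wells. Duplicate plates were run and medians reported. Lung cancer cell lines in 1536-well plates were dosed by pin tool one day after seeding, with one drug or with a fixed anchor-drug dose plus five library-drug doses (not always all listed) in √10 steps, and nuclei were counted after 5 days.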

Nelarabine + Pemetrexed = compound: COc1nc(N)nc2c1ncn2[C@@H]1O[C@H](CO)[C@@H](O)[C@@H]1O [Nelarabine] + Nc1nc2[nH]cc(CCc3ccc(C(=O)N[C@@H](CCC(=O)O)C(=O)O)cc3)c2c(=O)[nH]1 [Pemetrexed] (partner 0.2 µM)
Summary of the method: as §1

Nelarabine + Tozasertib = compound: COc1nc(N)nc2c1ncn2[C@@H]1O[C@H](CO)[C@@H](O)[C@@H]1O [Nelarabine] + Cc1cc(Nc2cc(N3CCN(C)CC3)nc(Sc3ccc(NC(=O)C4CC4)cc3)n2)n[nH]1 [Tozasertib] (partner 0.1 µM)
Summary of the method: as §1

Nelarabine + Foretinib = compound: COc1nc(N)nc2c1ncn2[C@@H]1O[C@H](CO)[C@@H](O)[C@@H]1O [Nelarabine] + COc1cc2c(Oc3ccc(NC(=O)C4(C(=O)Nc5ccc(F)cc5)CC4)cc3F)ccnc2cc1OCCCN1CCOCC1 [Foretinib] (partner 0.25 µM)
Summary of the method: as §1

Row | Cell Line | relative viability (Adavosertib + Pemetrexed; first compound 0.01 µM) | relative viability (Adavosertib + Pemetrexed; first compound 0.03162 µM) | relative viability (Adavosertib + Pemetrexed; first compound 0.1 µM) | relative viability (Adavosertib + Pemetrexed; first compound 0.3162 µM) | relative viability (Nelarabine + Pemetrexed; first compound 0.01 µM) | relative viability (Nelarabine + Pemetrexed; first compound 0.03162 µM) | relative viability (Nelarabine + Pemetrexed; first compound 0.1 µM) | relative viability (Nelarabine + Pemetrexed; first compound 0.3162 µM) | relative viability (Nelarabine + Pemetrexed; first compound 1 µM) | relative viability (Nelarabine + Tozasertib; first compound 0.01 µM) | relative viability (Nelarabine + Tozasertib; first compound 0.03162 µM) | relative viability (Nelarabine + Tozasertib; first compound 0.1 µM) | relative viability (Nelarabine + Tozasertib; first compound 0.3162 µM) | relative viability (Nelarabine + Tozasertib; first compound 1 µM) | relative viability (Nelarabine + Foretinib; first compound 0.01 µM) | relative viability (Nelarabine + Foretinib; first compound 0.1 µM) | relative viability (Nelarabine + Foretinib; first compound 0.3162 µM) | relative viability (Nelarabine + Foretinib; first compound 1 µM) | relative viability (Nelarabine + Foretinib; first compound 0.03162 µM)
1 | NCI-H2347 | 0.463 | 0.422 | 0.437 | 0.439 | 0.423 | 0.425 | 0.427 | 0.447 | 0.397 | 0.659 | 0.443 | 0.523 | 0.565 | 0.225 | 0.838 | 0.528 | 0.65 | 0.89 | 
2 | NCI-H1734 | 0.409 | 0.39 | 0.325 | 0.323 | 0.416 | 0.473 | 0.368 | 0.48 | 0.464 | 0.305 | 0.253 | 0.253 | 0.257 | 0.292 | 1.01 | 0.83 | 0.949 | 0.846 | 0.818
3 | LCLC-97TM1 | 0.214 | 0.171 | 0.17 | 0.159 |  |  | 0.153 | 0.2 | 0.169 | 0.259 | 0.148 | 0.192 | 0.2 | 0.234 | 0.996 | 1.01 | 0.922 | 0.935 | 0.792
4 | HOP-62 | 0.311 | 0.285 | 0.283 | 0.224 | 0.412 | 0.347 | 0.307 | 0.318 | 0.33 | 0.434 | 0.305 | 0.42 | 0.364 | 0.402 | 1.08 | 1.12 | 1.05 | 1.05 | 1
5 | NCI-H2405 |  | 1.1 | 0.899 | 1.05 | 0.939 | 1.11 | 1.09 | 1.16 | 1.01 | 0.805 | 0.682 | 0.663 | 0.73 | 0.67 | 1.07 | 0.95 | 0.988 | 1.03 | 1.04
6 | HCC-78 | 0.921 | 0.922 | 0.959 | 0.887 | 0.879 | 0.925 |  | 0.953 | 0.886 | 0.492 | 0.415 |  | 0.384 | 0.401 | 0.607 |  | 0.527 | 0.617 | 0.538
7 | SK-LU-1 | 1.03 | 0.967 | 0.812 | 0.536 | 1.19 | 0.796 | 1.06 | 0.995 | 1.04 | 0.307 | 0.198 | 0.298 | 0.323 | 0.332 | 1.03 | 0.951 | 0.896 | 1.03 | 0.584
8 | NCI-H1915 | 0.528 | 0.464 | 0.346 | 0.259 | 0.676 | 0.539 | 0.561 | 0.658 | 0.699 | 0.576 | 0.417 | 0.633 | 0.475 | 0.459 | 1.13 | 1.16 | 1.1 | 1.12 | 1.03
9 | NCI-H1666 | 0.808 | 0.925 | 0.82 | 0.695 | 0.957 | 0.919 | 0.872 | 0.936 | 0.834 | 0.626 | 0.572 | 0.606 | 0.578 | 0.632 | 1.05 | 0.918 | 1 | 1.03 | 1.02
10 | NCI-H1650 | 0.387 | 0.366 | 0.281 | 0.278 | 0.531 | 0.406 | 0.381 | 0.432 | 0.343 | 0.393 | 0.307 | 0.331 | 0.458 | 0.378 | 1.13 | 1.11 | 1.37 | 1.19 | 1.16
11 | NCI-H441 | 0.235 | 0.265 | 0.275 | 0.225 | 0.249 | 0.277 | 0.27 | 0.238 | 0.282 | 0.691 | 0.704 | 0.58 | 0.61 | 0.697 | 0.98 | 0.918 | 0.933 | 0.943 | 0.977
12 | LC-2-ad | 0.288 | 0.276 | 0.302 | 0.277 | 0.304 | 0.249 | 0.267 | 0.286 | 0.275 | 0.464 | 0.418 | 0.414 | 0.468 | 0.439 | 1 | 0.848 | 0.885 | 0.858 | 1.01
13 | LCLC-103H | 0.445 | 0.462 | 0.427 | 0.449 | 0.467 | 0.447 | 0.464 | 0.446 | 0.478 | 0.674 | 0.358 | 0.373 | 0.479 | 0.47 | 0.958 | 0.72 | 0.815 | 0.79 | 0.825
14 | HCC-827 | 0.283 | 0.223 | 0.284 | 0.245 | 0.231 | 0.235 | 0.27 | 0.287 | 0.231 | 0.499 | 0.423 | 0.446 | 0.366 | 0.476 | 1.01 | 0.87 | 0.822 | 0.716 | 0.925
15 | NCI-H2023 | 0.114 | 0.163 | 0.164 | 0.114 | 0.353 | 0.365 | 0.268 | 0.244 | 0.228 | 0.416 | 0.41 | 0.39 | 0.33 | 0.422 | 0.942 | 0.876 | 0.899 | 0.818 | 0.737
